Measured values reported in patent US12552783B2, “Modulators of proteolysis and associated methods of use” (Arvinas Operations, Inc., priority 2018, dated 2026).

Biological target: KRas (Homo sapiens, UniProt P01116, G12C)
Assay: KRas degradation in SW1573 cells by Western blot, normalized to GAPDH (data of Table 14)
Type: cell-based
Conditions: SW1573 cells
Description: Cell Lines, Antibodies, and Reagents. NCI-H2030 (CRL-5914) and SW1573 (CRL-2170) cells were purchased from ATCC. Both cell lines are homozygous for the G12C mutation in KRas. NCI-H2030 cells were cultured in RPMI-1640 medium containing 1% penicillin-streptomycin and 10% fetal bovine serum (FBS). SW1573 cells were cultured in DMEM containing 1% penicillin-streptomycin and 10% FBS. The KRas detection antibody (Cat. No. LS-C175665) was purchased from LifeSpan Biosciences and was used at a dilution of 1:2000. GAPDH was detected using an antibody purchased from Cell Signaling Technology (Cat. No. 5174) and was diluted 1:3000. Secondary anti-mouse and anti-rabbit detection antibodies were purchased from Cell Signaling Technology (Cat. Nos. 7076 and 7074, respectively).
Compound Treatment and Western Blotting of the Data of Table 14. Either NCI-H2030 or SW1573 cells were plated in 12-well plates and allowed to adhere overnight at 37° C. in an incubator containing 5% CO2. The following day, the medium was replaced with the appropriate medium lacking FBS to induce starvation. Cells were returned to the incubator for an additional 24 hours following media exchange. […] Cells were treated with VHL-based compounds for 24 hours and all other compounds for 72 hours. Following treatment, cells were lysed in RIPA buffer (Thermo Fisher Cat. No. 89900) containing phosphatase (Thermo Fisher Cat. No. 1861277) and protease (Thermo Fisher Cat. No. 78429) inhibitor cocktails. Lysates were cleared at 13,000 rpm for 15 minutes and supernatants were assayed for total protein concentration using the Pierce BCA assay system (Thermo Fisher Cat. No. 23225). For each sample, 10 μg total protein was resolved on a 12% Bis-Tris gel and then transferred to a nitrocellulose membrane. After blocking in 3% BSA in TBST (Tris-buffered Saline with 0.1% Tween-20) for 1 hour at room temperature, membranes were probed with the primary antibody (LS Bio Cat. No. LS-C175665) overnight at 4° C. After incubation with the secondary antibody, the following day membranes were visualized using the SuperSignal™ West Femto substrate (Thermo Fisher Cat. No. 34095). The KRas signal in each lane was normalized to GAPDH and percent degradation was either estimated as less than 25% by visual inspection (C in Table 13) or quantitated relative to the DMSO control lane using BIO-RAD Image Lab 5.2.1, and all data was plotted using GraphPad PRISM 6.07.
DC50 is the half-maximal degradation concentration—i.e., the concentration at which 50% degradation is observed. DMax is the maximum degradation efficacy is achieved—i.e., the maximal degradation observed) degradation data.

## C=CC(=O)N1CCN(c2nc(OC[C@@H]3C[C@@H](OCCOCCOCCOCCOCCOc4ccc5c(c4)C(=O)N(C4CCC(=O)NC4=O)C5=O)CN3C)nc3c2CCN(c2cccc4ccccc24)C3)C[C@@H]1CC#N (stereo partly drawn) [compound 505, 2-((2S)-1-acryloyl-4-(2-(((2S,4R)-4-((14-((2-(2,6-dioxopiperidin-3-yl)-1,3-dioxoisoindolin-5-yl)oxy)-3,6,9,12-tetraoxatetradecyl)oxy)-1-methylpyrrolidin-2-yl)methoxy)-7-(naphthalen-1-yl)-5,6,7,8-tetrahydropyrido[3,4-d]pyrimidin-4-yl)piperazin-2-yl)acetonitrile]
0.03 μM
  Percent Degradation at Indicated Concentration (μM): C (Percent Degradation: C ≤ 35)
0.1 μM
  Percent Degradation at Indicated Concentration (μM): C (Percent Degradation: C ≤ 35)
0.3 μM
  Percent Degradation at Indicated Concentration (μM): C (Percent Degradation: C ≤ 35)

## C=CC(=O)N1CCN(c2nc(O[C@H](C)CN3CCC(CN4CCN(c5ccc6c(c5)C(=O)N(C5CCC(=O)NC5=O)C6=O)CC4)CC3)nc3c(F)c(-c4cc(O)cc5ccccc45)c(Cl)cc23)CC1 (stereo partly drawn) [compound 431, 5-(4-((1-((2R)-2-((4-(4-acryloylpiperazin-1-yl)-6-chloro-8-fluoro-7-(3-hydroxynaphthalen-1-yl)quinazolin-2-yl)oxy)propyl)piperidin-4-yl)methyl)piperazin-1-yl)-2-(2,6-dioxopiperidin-3-yl)isoindoline-1,3-dione]
0.1 μM
  Percent Degradation at Indicated Concentration (μM): C (Percent Degradation: C ≤ 35)
0.3 μM
  Percent Degradation at Indicated Concentration (μM): C (Percent Degradation: C ≤ 35)
1 μM
  Percent Degradation at Indicated Concentration (μM): C (Percent Degradation: C ≤ 35)

## C=CC(=O)N1CCN(c2nc(O[C@H](C)CN(C)CCOCCOCCOCCOCC(=O)N[C@H](C(=O)N3C[C@H](O)C[C@H]3C(=O)N[C@@H](C)c3ccc(-c4scnc4C)cc3)C(C)(C)C)nc3c(F)c(-c4cc(O)cc5ccccc45)c(Cl)cc23)CC1 [compound 397, (2S,4R)-1-((2S,20R)-20-((4-(4-acryloylpiperazin-1-yl)-6-chloro-8-fluoro-7-(3-hydroxynaphthalen-1-yl)quinazolin-2-yl)oxy)-2-(tert-butyl)-18-methyl-4-oxo-6,9,12,15-tetraoxa-3,18-diazahenicosanoyl)-4-hydroxy-N-((S)-1-(4-(4-methylthiazol-5-yl)phenyl)ethyl)pyrrolidine-2-carboxamide]
  DC50: 100 to 1000 nM
  Dmax: ≤ 35%
0.01 μM
  Percent Degradation at Indicated Concentration (μM): C (Percent Degradation: C ≤ 35)
0.03 μM
  Percent Degradation at Indicated Concentration (μM): C (Percent Degradation: C ≤ 35)
0.1 μM
  Percent Degradation at Indicated Concentration (μM): C (Percent Degradation: C ≤ 35)
0.3 μM
  Percent Degradation at Indicated Concentration (μM): C (Percent Degradation: C ≤ 35)
1 μM
  Percent Degradation at Indicated Concentration (μM): C (Percent Degradation: C ≤ 35)

## C=CC(=O)N1CCN(c2nc(O[C@H](C)CN3CCC(OCCOCCOc4cc(-c5scnc5C)ccc4CNC(=O)[C@@H]4C[C@@H](O)CN4C(=O)[C@@H](c4cc(C)no4)C(C)C)CC3)nc3c2CCN(c2cc(O)cc4ccccc24)C3)CC1 [compound 438]
0.1 μM
  Percent Degradation at Indicated Concentration (μM): B (35 < B < 70)
0.3 μM
  Percent Degradation at Indicated Concentration (μM): C (Percent Degradation: C ≤ 35)
1 μM
  Percent Degradation at Indicated Concentration (μM): B (35 < B < 70)

## C=CC(=O)N1CCN(c2nc(O[C@H](C)CN3CCC(OCCOc4cc([C@@H](C(=O)N5C[C@H](O)C[C@H]5C(=O)N[C@@H](C)c5ccc(-c6scnc6C)cc5)C(C)C)on4)CC3)nc3c(F)c(-c4cc(O)cc5ccccc45)c(Cl)cc23)CC1 [compound 524, (2S,4R)-1-((2S)-2-(3-(2-((1-((2R)-2-((4-(4-acryloylpiperazin-1-yl)-6-chloro-8-fluoro-7-(3-hydroxynaphthalen-1-yl)quinazolin-2-yl)oxy)propyl)piperidin-4-yl)oxy)ethoxy)isoxazol-5-yl)-3-methylbutanoyl)-4-hydroxy-N-((S)-1-(4-(4-methylthiazol-5-yl)phenyl)ethyl)pyrrolidine-2-carboxamide]
0.03 μM
  Percent Degradation at Indicated Concentration (μM): C (Percent Degradation: C ≤ 35)
0.1 μM
  Percent Degradation at Indicated Concentration (μM): C (Percent Degradation: C ≤ 35)
0.3 μM
  Percent Degradation at Indicated Concentration (μM): C (Percent Degradation: C ≤ 35)

## CN1C[C@H](OCCOCCNc2cccc3c2C(=O)N(C2CCC(=O)NC2=O)C3=O)C[C@H]1COc1nc2c(c(N3CCN(C(N)=O)[C@@H](CC#N)C3)n1)CCN(c1cccc3ccccc13)C2 (stereo partly drawn) [compound 543, (2S)-2-(cyanomethyl)-4-(2-(((2S,4R)-4-(2-(2-((2-(2,6-dioxopiperidin-3-yl)-1,3-dioxoisoindolin-4-yl)amino)ethoxy)ethoxy)-1-methylpyrrolidin-2-yl)methoxy)-7-(naphthalen-1-yl)-5,6,7,8-tetrahydropyrido[3,4-d]pyrimidin-4-yl)piperazine-1-carboxamide]
0.3 μM
  Percent Degradation at Indicated Concentration (μM): C (Percent Degradation: C ≤ 35)
1 μM
  Percent Degradation at Indicated Concentration (μM): C (Percent Degradation: C ≤ 35)
3 μM
  Percent Degradation at Indicated Concentration (μM): C (Percent Degradation: C ≤ 35)

## C=CC(=O)N1CCN(c2nc(O[C@H](C)CN3CCC(OCCOCCOc4cc([C@H](C(=O)N5C[C@H](O)C[C@H]5C(=O)N[C@@H](C)c5ccc(-c6scnc6C)cc5)C(C)C)on4)CC3)nc3c(F)c(-c4cc(O)cc5ccccc45)c(Cl)cc23)CC1 [compound 527, (2S,4R)-1-((2R)-2-(3-(2-(2-((1-((2R)-2-((4-(4-acryloylpiperazin-1-yl)-6-chloro-8-fluoro-7-(3-hydroxynaphthalen-1-yl)quinazolin-2-yl)oxy)propyl)piperidin-4-yl)oxy)ethoxy)ethoxy)isoxazol-5-yl)-3-methylbutanoyl)-4-hydroxy-N-((S)-1-(4-(4-methylthiazol-5-yl)phenyl)ethyl)pyrrolidine-2-carboxamide]
0.03 μM
  Percent Degradation at Indicated Concentration (μM): C (Percent Degradation: C ≤ 35)
0.1 μM
  Percent Degradation at Indicated Concentration (μM): C (Percent Degradation: C ≤ 35)
0.3 μM
  Percent Degradation at Indicated Concentration (μM): C (Percent Degradation: C ≤ 35)

## C=CC(=O)N1CCN(c2nc(O[C@H](C)CN3CCC(OCCOCCOCCOCCOc4ccc5c(c4)C(=O)N(C4CCC(=O)NC4=O)C5=O)CC3)nc3c(F)c(-c4cc(O)cc5ccccc45)c(Cl)cc23)CC1 (stereo partly shown) [compound 429]
0.1 μM
  Percent Degradation at Indicated Concentration (μM): C (Percent Degradation: C ≤ 35)
0.3 μM
  Percent Degradation at Indicated Concentration (μM): C (Percent Degradation: C ≤ 35)
1 μM
  Percent Degradation at Indicated Concentration (μM): C (Percent Degradation: C ≤ 35)

## C=CC(=O)N1CCN(c2nc(O[C@H](C)CN3CCC(OCCOc4ccc5c(c4)C(=O)N(C4CCC(=O)NC4=O)C5=O)CC3)nc3c(F)c(-c4cc(O)cc5ccccc45)c(Cl)cc23)CC1 (stereo partly drawn) [compound 426, 5-(2-((1-((2R)-2-((4-(4-acryloylpiperazin-1-yl)-6-chloro-8-fluoro-7-(3-hydroxynaphthalen-1-yl)quinazolin-2-yl)oxy)propyl)piperidin-4-yl)oxy)ethoxy)-2-(2,6-dioxopiperidin-3-yl)isoindoline-1,3-dione]
0.1 μM
  Percent Degradation at Indicated Concentration (μM): C (Percent Degradation: C ≤ 35)
0.3 μM
  Percent Degradation at Indicated Concentration (μM): C (Percent Degradation: C ≤ 35)
1 μM
  Percent Degradation at Indicated Concentration (μM): C (Percent Degradation: C ≤ 35)

## C=CC(=O)N1CCN(c2nc(O[C@H](C)CN3CCC(OCCOCCOCCOCCOc4ccc5c(c4)CN(C4CCC(=O)NC4=O)C5=O)CC3)nc3c2CCN(c2cc(O)cc4ccccc24)C3)CC1 (stereo partly drawn) [compound 424, 3-(5-(2-(2-(2-(2-((1-((R)-2-((4-(4-acryloylpiperazin-1-yl)-7-(3-hydroxynaphthalen-1-yl)-5,6,7,8-tetrahydropyrido[3,4-d]pyrimidin-2-yl)oxy)propyl)piperidin-4-yl)oxy)ethoxy)ethoxy)ethoxy)ethoxy)-1-oxoisoindolin-2-yl)piperidine-2,6-dione]
0.1 μM
  Percent Degradation at Indicated Concentration (μM): C (Percent Degradation: C ≤ 35)
0.3 μM
  Percent Degradation at Indicated Concentration (μM): C (Percent Degradation: C ≤ 35)
1 μM
  Percent Degradation at Indicated Concentration (μM): C (Percent Degradation: C ≤ 35)
